Entries after “also recorded” stand apart in the source; their conditions may differ.
Columns and labels:
[1] = system: ERBB2 (phospho-Y1248); assay: Western blot of ERBB2 phospho-Y1248 in BG01 hESCs; assay type: cell-based, human; conditions: BG01 hESCs starved overnight
Experimental: BG01 hESCs were grown in DC-HAIF and then in media minus or starved of growth factors overnight, washed and then pulsed with either with heregulin (HRG) or not, or incubated with AG825 or not.
All BG01 HESC cultures were first grown in defined conditioned-heregulin/Activin A/IGF1/FGF (DC-HAIF) and then in media starved of growth factors overnight e.g., no heregulin, Activin A, IGF1 and/or FGF. […]
Cell lysates were prepared as per RTK blotting, separated by 4-20% gradient SDS-PAGE, blotted and detected with an immunoaffinity purified anti-ERBB2 (phospho-Y1248) antibody (Upstate/Millipore Cat#06229). The Erbb2 phospho-Y1248 antibody was used to quantify tyrosine phosphorylation of Erbb2 resulting from the interaction of heregulin with Erbb3 and/or ErbB4. […]

[2] = target: T1, Erbb3 (Homo sapiens, UniProt P21860); assay: Phospho-RTK antibody array, Erbb3 phosphorylation in BG01 and BG01v cells; assay type: cell-based; conditions: BG01 and BG01v cells starved overnight, then pulsed about 15 minutes with 10 ng/ml heregulin
T1 construct: endogenous in cells; host or cells: BG01 and BG01v human embryonic stem cells
Experimental: (§1) (A) BG01 and BG01v cells were grown in defined condition-heregulin/Activin A/IGF-1/FGF (DC-HAIF) media. The hESCs were starved of growth factors overnight (“Starved”), or starved then pulsed with 10 ng/ml Heregulin (“HRG pulse”). Cell lysates were prepared and examined for phosphorylation of Erbb2 and Erbb3 by RTK blotting. (B) The spots were quantified, normalized against controls, and charted as normalized relative intensity. […] While at a lower overall intensity, a similar pattern was also observed in the starved conditions.
(§2) Cells were maintained in steady state conditions in defined conditioned-heregulin/Activin A/IGF1/FGF (DC-HAIF), were incubated in media minus or starved of growth factors (e.g., no heregulin/Activin A/IGF1/FGF) overnight, or starved and then pulsed about 15 minutes with 10 ng/ml heregulin. Proteome Profiler™ human phospho-RTK antibody arrays (R&D Systems, Cat#ARY001) were used according to the manufacturer's instructions. […] The arrayed antibodies capture the extracellular domains of both phosphorylated and unphosphorylated RTKs, and bound phospho-RTKs were detected with a pan anti-phospho-tyrosine antibody conjugated to horseradish peroxidase (HRP) using chemiluminescence. X-ray film was scanned and spots were quantified using NTH-image (world wide web at rsb.info.nih.gov/nih-image/). […]

[3] = system: Erbb2; assay: Phospho-RTK antibody array, Erbb2 phosphorylation in BG01 and BG01v cells; assay type: cell-based, human; conditions: BG01 and BG01v cells starved overnight, then pulsed about 15 minutes with 10 ng/ml heregulin
Experimental: as §1, §2

[4] = target: Erbb2/3 heterodimers (Homo sapiens, UniProt P21860); conditions: read-out: binding affinity; cited from earlier work
[5] = target: Erbb2/4 heterodimers (Homo sapiens, UniProt Q15303); conditions: read-out: binding affinity; cited from earlier work
[6] = system: BG01v cells; assay: Growth of BG01v cells in defined media with Erbb2 TK inhibitors; assay type: cell-based, human; conditions: absence of an exogenous Erbb2 activating growth factor
Text: This confirms that endogenous Erbb2 signaling is critical for the self-renewal of BG01v cells and represents a major difference between variant and normal hESCs.

[7] = system: Erbb2Δ16-expressing cells; conditions: unlike wild type Erbb2-transfectants; cited from earlier work
[8] = target: T2, wild type Erbb2 (Homo sapiens, UniProt P04626); conditions: cited from earlier work
T2 construct: host or cells: transfected human cells (Castiglioni et al., 2006)

[9] = target: T3, Erbb2Δ16 (Homo sapiens, UniProt P04626, DEL634-649); conditions: cited from earlier work
T3 construct: host or cells: transfected human cells / Erbb2Δ16 transgene over-expression (Castiglioni et al., 2006)

[10] = target: Erbb2 tyrosine kinase (Homo sapiens, UniProt P04626); conditions: cited from earlier work
[11] = system: hESCs; assay: hESC proliferation and cell count after treatment with AG825; assay type: cell-based, human; conditions: for cell count: average of triplicate counts
Experimental: Based on the above studies described in Examples 13 and 14, further experiments were performed to quantify the number of hESCs and determine the level of inhibition of Erbb2 using AG825. […] Values reported were taken from an average of the triplicate (3) cell counts. The initial cell count was performed similarly. AG825 inhibited Erbb2 tyrosine kinase activity, thereby inhibiting cell signaling, and effectively reducing and inhibiting HESC proliferation and growth by about at least 1, 2 or 3 orders of magnitude.

## HRG: Heregulin-β EGF domain (HRGβ, Peprotech), recombinant growth factor
[1]; 15 minute pulse with 10 ng/ml HRG1β (lane 3) or DC-HAIF media (lane 5)
  Erbb2 phosphorylation detected by phospho-Y1248 antibody: increased Erbb2 phosphorylation
[2]
  phosphorylation of ERBB3: strong phosphorylation
[3]
  phosphorylation of ERBB2: strong phosphorylation

## HRG-β: neuregulin-β, EGF growth factor family member; cleaved ectodomain of neuregulin
[4]
  Kd: < 1 nM
[5]
  Kd: < 1 nM

## CC(C)(C)c1cc(/C=C(\C#N)C(N)=S)cc(C(C)(C)C)c1O [AG879]
[6]
  growth of BG01v cells: inhibit the growth

## COc1cc2ncnc(Nc3ccc(F)c(Cl)c3)c2cc1OCCCN1CCOCC1 [ZD1839]
[7]
  sensitivity of Erbb2Δ16-expressing cells to the drug: low sensitivity

## Cc1cc(O)c2c(c1)C(=O)c1cc(O)cc(O)c1C2=O [emodin]
[8]
  activation of wild type Erbb2 transfectants: blocked activation
[9]
  activation of Erbb2Δ16 transfectants: blocked activation
[6]
  growth of BG01v cells: inhibit the growth

## COc1cc(/C=C(\C#N)C(N)=O)cc(CSc2nc3ccccc3s2)c1O [AG825, Tyrphostin AG825]
[10]
  selectivity as inhibitor of the Erbb2 tyrosine kinase: highly selective inhibitor
[1]; 15 minute pulse, 50 μM AG825 without or with 10 ng/ml HRG1β (lanes 2 and 4)
  autophosphorylation of ERBB2 at Tyrosine-1248: inhibited autophosphorylation; also recorded: inhibition of ERBB2 Y1248 phosphorylation
[11]
  number of hESCs after treatment compared to DMSO and conditioned media (CM) control: statistically significant decrease
[11]; Experiment 1, initial cell count 560 × 10^3, CM 1.99 × 10^6, DMSO 2.13 × 10^6, P = 0.005
  cell count: 406.6 × 10^3
[11]; Experiment 2, initial cell count 853.3 × 10^3, CM 2.77 × 10^6, DMSO 2.54 × 10^6, P = 0.007
  cell count: 433.3 × 10^3
[11]; hESCs growing in CM
  proliferation of hESCs: significantly inhibited proliferation
[6]
  growth of BG01v cells: inhibit the growth

Reference: patent US7737253B2, “Human cancer stem cell culture compositions comprising Erbb2 variants and methods of use thereof” (BresaGen, Inc., priority 2006, dated 2010)
